The assay has as its system P. falciparum 3D7 growth, pLDH absorbance. In words: P. falciparum 3D7 growth inhibition, dose response, strain 3D7 (AID 2305).

In general, IC50 refers to the midpoint of a concentration-inhibition curve. Low values mean greater potency, high ones weaker potency. Consider `CC(=O)N(C)c1ccc(C(=O)Nc2cccc(-c3cccc(-c4nc5c(C)cccc5[nH]4)c3)c2)cc1`, for which the IC50 is 620 nM.

In the case of `OC(CNC1CCCCC1)Cn1c2ccc(I)cc2c2cc(I)ccc21` (stereo not drawn), the IC50 is 340 nM.

`COc1cc(C)nc2ccc(NC(=O)Nc3cccc4ccccc34)cc12` came in with an IC50 of 880 nM.

Regarding `CC(=O)Nc1cccc(CN(Cc2ccc(-c3ccc(CNCc4cccnc4)cn3)cc2)C(=O)Cc2cccnc2)c1`, the IC50 amounted to 820 nM.

The molecule `O=C(c1ccc(-c2ccccn2)s1)N1CCc2cc3nccc(N4CCN5CCC[C@H]5C4)c3cc21` came in with an IC50 of 760 nM.

As for `COc1ccc2c(CCNc3nc(SC)ncc3C(=O)NCCc3ccc(F)cc3)c[nH]c2c1`, the IC50 is 760 nM.

On to `O=C(/C=C/c1ccc(Cl)c(Cl)c1)NCCCCCN1CCC(NC(=O)Nc2ccc3c(c2)OCO3)CC1`, for which the IC50 came out at 710 nM.

In turn, `O=[N+]([O-])c1cccc(CNCC2CCN(CCc3ccccc3)CC2)c1` showed an IC50 of 780 nM.

Molecule `CC1Cc2ccccc2N1S(=O)(=O)c1cccc(C(=O)Nc2nc(-c3ccccn3)cs2)c1` (stereo not drawn) returned an IC50 of 1320 nM.

`CC[C@H](C)CNCc1ccc(OCc2cccc(COc3ccc(CNC[C@@H](C)CC)cc3I)c2)c(I)c1` had an IC50 of 400 nM.

For `O=C(NCc1ccc(F)cc1)Nc1cccc(-c2ccc(-c3nc4ccc(F)cc4[nH]3)cc2)c1`, the IC50 came to 230 nM.

For the molecule `Cn1ncc2c3c(CCN4CCC(NCc5cc6c(cn5)OCCO6)CC4)c(Cl)cnc3ccc21`, the IC50 is 770 nM.

`O=C(Nc1cccc(CN2CCCN(Cc3ncc[nH]3)CC2)c1)c1ccc(-c2ccccc2)cc1` returned an IC50 of 650 nM.

`O=C(NCCNc1ccnc(Nc2ccc(F)cc2)n1)Nc1ccccc1F` gave an IC50 of 760 nM.

Molecule `C=CCN1C(=O)C(C(C)=O)=C(O)C1c1ccccc1` (stereo not drawn) yielded an IC50 of 50 nM.

The molecule `COc1cc(NC(=O)c2ccc3oc4ccccc4c3c2)ccc1OCCN1CCCCC1` gave an IC50 of 920 nM.

The molecule `CC(=O)Nc1ccc(CN2Cc3ccc(NC(=O)Nc4ccc(Oc5ccccc5)cc4)cc3C2)s1` came in with an IC50 of 920 nM.

The molecule `COc1ccc(-c2cnn3ccc(Nc4cc(OC)c(OC)c(OC)c4)nc23)cc1OC` returned an IC50 of 650 nM.

In turn, `O=C(Nc1cc(Cl)ccc1Cl)N[C@H]1CCN(CCCCCNC(=O)[C@@H]2C[C@H]2c2ccc(Cl)c(Cl)c2)C1` displayed an IC50 of 770 nM.

`O=C(Nc1ccc2nc3n(c(=O)c2c1)CCCCC3)C(=O)N1CCC(Cc2ccccc2)CC1`: the IC50 stood at 760 nM.

On to `NC(N)=Nc1nccc(NCc2ccccc2)n1`, for which the IC50 came to 890 nM.

On to `Fc1cccc(COc2ccc(-n3ccc4c(NCCCn5ccnc5)ncnc43)cc2Cl)n1`, for which the IC50 is 1030 nM.

`O=[N+]([O-])c1ccc2c(-c3ccccc3)c(-c3ccccc3)n(O)c2c1` had an IC50 of 990 nM.

`COc1ccc2nc3cc(Cl)ccc3c(Nc3ccc(O)c(CNC(C)C)c3)c2c1` returned an IC50 of 140 nM.

`Clc1ccc(OCc2ccccc2)c(-c2nc(-c3nc4ccc(Cl)cc4[nH]3)cs2)c1` returned an IC50 of 670 nM.

Consider `COc1ccc2nccc([C@@H](O)CN3CCC(NCc4nc5c(OCc6ccccc6)cccc5[nH]4)CC3)c2c1`, for which the 50% inhibitory concentration (IC50) stood at 180 nM.

In turn, `CCC(C)CN1CCN(c2ccc(NC(=O)c3cccs3)cc2)CC1C` (stereo not drawn) came in with a concentration for half-maximal inhibition (IC50) of 660 nM.

In turn, `CC(C)n1ncc2c(C(=O)N3CCCC4CCCCC43)cc(C3CC3)nc21` (stereo not drawn) registered a half-maximal inhibitory concentration (IC50) of 680 nM.

As to `Clc1ccc(Nc2nc(Nc3ccc(Cl)c(Cl)c3)nc(Sc3nc4ccccc4[nH]3)n2)cc1Cl`, the IC50 is 490 nM.

`O=C(NC1CC1)c1ccc(N2CCC(Cc3ccccc3)CC2)nc1` gave an IC50 of 760 nM.

`N#Cc1ccc(Sc2nnc(-c3ccccc3Cl)n2CC2CCCCC2)cc1[N+](=O)[O-]` yielded an IC50 of 1160 nM.

For `O=C(Nc1cccc(-c2cccc(-c3nc4ccccc4[nH]3)c2)c1)Nc1ccc2c(c1)OCO2`, the IC50 came out at 170 nM.

On to `Cc1[nH]c2cc(Cl)ccc2c1C1=CCN(CCN2CCOc3c(Br)cccc3C2=O)CC1`, for which the IC50 turned out to be 870 nM.

As for `CN(C)c1ccnc2ccc(NC(=O)Nc3ccnc4ccccc34)cc12`, the IC50 amounted to 130 nM.

Turning to `Cc1cn(CC(=O)Nc2cccc(-c3cccc(-c4nc5c(C)cccc5[nH]4)c3)c2)c(=O)[nH]c1=O`, the IC50 was found to be 580 nM.

The molecule `CCn1c(-c2nonc2N)nc2c(-c3cccc(NC(=O)Nc4cccc(C(F)(F)F)c4)c3)ncc(OCCCN)c21` came in with an IC50 of 970 nM.

For `O=C(Nc1ccsc1)Nc1cccc(-c2cccc(-c3nc4ccc(F)cc4[nH]3)c2)c1`, the IC50 came to 200 nM.

`Cc1cccc(-c2nn(-c3ccccc3)cc2C(=O)Nc2nnc(C)o2)c1` registered an IC50 of 1160 nM.

`Cc1ccc(S(=O)(=O)NC2CCN(CCNC(=O)Nc3cc(C)nc4ccccc34)C2)cc1` (stereo not drawn) came in with an IC50 of 1040 nM.

Molecule `Nc1cnc(C#Cc2cc3ncnc(N(CCN4CCOCC4)c4ccc(OCc5cccc(F)c5)c(Cl)c4)c3s2)cn1` registered an IC50 of 1050 nM.

As to `Cn1nc(-c2ccc(Cl)cc2)c2cc(C(=O)NCCN3CCOCC3)sc21`, the IC50 is 720 nM.

With `Nc1ncc(Cc2ccc3c(ccc4ccccc43)c2)c(N)n1`, the IC50 was 760 nM.

Regarding `Cc1nnc(NC(=O)c2cn(-c3ccccc3)nc2-c2ccccc2C)o1`, the 50% inhibitory concentration (IC50) was 560 nM.

The molecule `O=C(Nc1cccc2ccccc12)N1CCc2cc3nccc(N4CCN5CCC[C@H]5C4)c3cc21` displayed an IC50 of 890 nM.

`Cc1ccc(NC(=O)NC2CCN(c3ccnc4ccccc34)CC2)cc1` had an IC50 of 790 nM.

In the case of `CN1CCN(c2ccnc3cc4ccccc4cc23)CC1`, the IC50 amounted to 950 nM.

`CC(=O)Nc1ccc(CNCCc2ccc(NC(=O)c3cc(Cl)cc(Cl)c3)cc2)cc1` registered an IC50 of 680 nM.

In turn, `O=C(Nc1cccc(-c2cccc(-c3nc4ccc(C(F)(F)F)cc4[nH]3)c2)c1)c1cnc[nH]1` gave an IC50 of 210 nM.

For `CN1CCN(c2cccc(-c3nnc(-c4ccc(OCC(=O)NCc5ccc(C(F)(F)F)cc5)c([N+](=O)[O-])c4)o3)c2)CC1`, the IC50 was 660 nM.

Turning to `CN(C)CCCNCc1ccc(-c2ccc(F)c(Cl)c2)o1`, the IC50 worked out at 800 nM.

For `CS(=O)(=O)c1ccc(CNCc2cccc(-c3ccc(-c4nc5ccc(C(F)(F)F)cc5[nH]4)cc3)c2)cc1`, the half-maximal inhibitory concentration (IC50) worked out at 510 nM.

`CCCOc1ccc2ccccc2c1CNCCCCCCNCc1c(OCCC)ccc2ccccc12` had an IC50 of 790 nM.

`C[C@H](NC(=O)c1c(CN2CCN(C(=O)C(C)(C)C)CC2)c(-c2cccs2)nc2ccccc12)C1CCCCC1` gave a half-maximal inhibitory concentration (IC50) of 1180 nM.

For `O=C(/C=C/c1ccc(Cl)c(Cl)c1)N1CCC(CN2CCC(Cc3nc4ccccc4[nH]3)CC2)CC1`, the IC50 stood at 250 nM.

For `COc1ccc(CCC(C)N2C[C@@H](N)[C@H](c3cn(C)c4cnccc34)C2)cc1` (stereo partly drawn), the IC50 came out at 1360 nM.

As for `CN(Cc1cnc2nc(N)nc(N)c2n1)c1ccc(C(=O)N[C@H](CCC(=O)O)C(=O)O)cc1`, the IC50 worked out at 100 nM.

Molecule `COc1ccc2nccc([C@@H](O)CN3CCC(NC(=O)Cc4cc5ccccc5s4)CC3)c2c1` registered an IC50 of 910 nM.

Regarding `OCCCCCCN=Cc1[nH]c(=S)sc1O`, the concentration for half-maximal inhibition (IC50) was 850 nM.

In turn, `Cc1cccc2[nH]c(-c3cc(-c4cn[nH]c4)cnc3N)nc12` showed an IC50 of 220 nM.

With `OCCN1CCN(Cc2ccc(-c3ccc(-c4nc5ccc(F)cc5[nH]4)cc3)cc2)CC1`, the IC50 turned out to be 570 nM.

As for `COc1cc(F)c2ncc(Cl)c(C(O)CN3CCC(NC(=O)c4ccc5c(n4)NC(=O)CO5)CC3)c2c1` (stereo not drawn), the IC50 came out at 750 nM.

Molecule `Cc1nc(-c2cccc(C(=O)Nc3cnc4ccccc4c3)c2)no1` had a 50% inhibitory concentration (IC50) of 1160 nM.

The molecule `O=C(Nc1ccc(-c2ccc(-c3nc4ccc(C(F)(F)F)cc4[nH]3)cc2)cc1)Nc1ccc(F)c(F)c1F` had an IC50 of 220 nM.

`N#CC1(c2ccccc2)CCN(c2nc(NCCCN3CCCC3=O)nc(N3CCCC4CCCCC43)n2)CC1` (stereo not drawn): the IC50 is 860 nM.

For `CCCc1cc(NCC)nc(Nc2ccc(F)cc2)n1`, the IC50 is 1030 nM.

As to `CC(NC(=O)NC1CCC(CCN2CCCc3ccccc32)CC1)c1cccc2ccccc12` (stereo not drawn), the IC50 was found to be 1020 nM.

`COc1cc(-c2ccc(-c3cnc(N)nc3OC)[nH]2)cc(OC)c1OC` gave an IC50 of 730 nM.

Turning to `CC(C)CC(=O)N1CCNC[C@@H]1C(=O)NCCSCc1c(F)cccc1Cl`, the IC50 was found to be 1200 nM.

The molecule `O=C(NC1CCN(Cc2ccccc2)CC1)c1cccc(Nc2nc(-c3ccccc3)cs2)c1` yielded a 50% inhibitory concentration (IC50) of 1030 nM.

With `CCc1c(CCNCCCCCCNCCc2ccc(OC)c(OC)c2C)ccc(OC)c1OC`, the IC50 worked out at 1570 nM.

`NC(N)=NN=CC(=O)Nc1ccc(Cl)cc1` displayed an IC50 of 810 nM.

In the case of `OCC1CCN(Cc2cccc(-c3cccc(-c4nc5ccc(C(F)(F)F)cc5[nH]4)c3)c2)CC1`, the half-maximal inhibitory concentration (IC50) is 510 nM.

As to `CCCCC(CC)CN1C(=O)C(c2ccccc2)(c2ccccc2)N=C1N` (stereo not drawn), the IC50 was 190 nM.

Molecule `CN1CCN(c2ccc(CNc3ccc4ncc(-c5cccc(OC(F)(F)F)c5)n4n3)cc2)CC1` showed an IC50 of 860 nM.

In the case of `Cc1cc(N[C@@H](C)C(=O)Nc2ccccc2)nc(NCCc2ccc(F)cc2)n1`, the half-inhibitory concentration (IC50) turned out to be 1110 nM.

Molecule `CSCCCN1CCC(O)(c2ccc3oc(C(=O)Nc4ccc5sc(C)nc5c4)cc3c2)CC1` displayed an IC50 of 1070 nM.

For `COc1ccc(Nc2ncc3c(-c4cccc(NC(=O)Cc5ccc(O)cc5)c4)c[nH]c3n2)cc1OC`, the IC50 was 570 nM.

As to `COc1cccc(Nc2nc(Nc3cccc(C#N)c3)cc(-c3ccncc3)n2)c1`, the IC50 stood at 760 nM.

`O=C(NCCN1CCC(NC(=O)c2ccc(-c3ccccn3)s2)CC1)c1ccc(Cl)c(Cl)c1`: the IC50 was 880 nM.

As to `CC(C)(C)c1ccc(-c2nc3c(ccc4nc(N)nc(N)c43)[nH]2)cc1`, the IC50 came out at 160 nM.

The molecule `COc1ccc(CN2CCC(NCc3cccc(-n4ccnc4)c3)CC2)cc1` displayed an IC50 of 630 nM.

On to `COc1ccc(NC(=O)[C@H](Cc2ccccc2)Nc2cc(C)nc(NCC3CCCCC3)n2)cc1`, for which the IC50 was 680 nM.

The molecule `CCN(CC)CCNc1nc(C=Cc2ccc(Cl)cc2)nc2cc3ccccc3cc12` registered an IC50 of 150 nM.

`Oc1ccc(Cl)cc1Nc1nc(C(F)(F)F)nc2ccccc12` displayed an IC50 of 940 nM.

The molecule `Cc1cccc2[nH]c(-c3ccc(-c4ccc(CN5CCN(CCN6CCOCC6)CC5)cc4)cc3)nc12` displayed an IC50 of 230 nM.

In turn, `CCc1ccc(CN2CCC(CNC(=O)c3cc(-c4cccc(C(F)(F)F)c4)cs3)C2)cc1` (stereo not drawn) returned an IC50 of 750 nM.

Regarding `O=[N+]([O-])c1cccc(C=NNc2ccnc3ccc(C(F)(F)F)cc23)c1`, the half-maximal inhibitory concentration (IC50) was 1090 nM.

As to `Cc1cc2c3c(N)nc(N)nc3ccc2n1C`, the IC50 was found to be 90 nM.

The values above are taken from PubChem BioAssay AID2305 (GlaxoSmithKline (GSK), 2010).
